US4981950A, “Vasoconstrictor peptide” (Takeda Chemical Ind., Ltd., priority 1987, dated 1991)

Key:
[1] = system: porcine right coronary artery; experiment: Assay of vascular smooth muscle constrictor activity (isometric tension of intima-denuded artery spiral specimens); details: assay (1); purified compound I from porcine aortic endothelial cell culture supernatant; Krebs-Ringer solution, 37° C.
Method: Porcine right coronary artery spiral specimens (2×20 mm) with the intima denuded by rubbing with a small swab are suspended in 3 ml of Krebs-Ringer solution maintained at 37° C. and saturated with the mixed gas containing 5% carbon dioxide and 95% oxygen by volume. After setting the basal tension to 1 g, the isometric tension is measured with tension transducers.
(§1) The activity of the compound I obtained in 2 (iii) above was assayed by the method of Reference Example (1) and (2).

guinea pig right atrium = experiment: Assay of cardiotonic action (tension and heart rate of suspended right atrium specimens); details: assay (2); purified compound I from porcine aortic endothelial cell culture supernatant
Method: Instead of the porcine right coronary artery spiral specimens used in the assay described in the above item (1), guinea pig right atrium suspended specimens are used, and the tension and the heart rate per minute are measured according to the same procedure as described in (1). (3) ED50
as §1

`CC[C@H](C)[C@H](NC(=O)[C@H](CC(=O)O)NC(=O)[C@H](CC(C)C)NC(=O)[C@H](Cc1c[nH]cn1)NC(=O)[C@@H]1CSSC[C@H](N)C(=O)N[C@@H](CO)C(=O)N[C@H]2CSSC[C@H](NC(=O)[C@H](CCC(=O)O)NC(=O)[C@H](CCCCN)NC(=O)[C@H](CC(=O)O)NC(=O)[C@H](CCSC)NC(=O)[C@H](CC(C)C)NC(=O)[C@H](CO)NC(=O)[C@H](CO)NC2=O)C(=O)N[C@@H](C(C)C)C(=O)N[C@@H](Cc2ccc(O)cc2)C(=O)N[C@@H](Cc2ccccc2)C(=O)N1)C(=O)N[C@H](C(=O)N[C@@H](Cc1c[nH]c2ccccc12)C(=O)O)[C@@H](C)CC` [compound I] was tested, and the “ED50 for smooth muscle constrictor activity to porcine coronary artery” value [1] was 4 to 5×10^-10 mole/l and the “ED50 for cardiotonic action to guinea pig right atrium” value (guinea pig right atrium) was 1 nM.
